Measurements reported in US20160157477A1, “USE OF VISUAL CUES TO ENHANCE BIRD REPELLENT COMPOSITIONS” (ARKION LIFE SCIENCES, LLC, priority 2014, published 2016).

Experiments:
[1] = tested on: red-winged blackbirds; experiment: Threshold AQ concentration previously established for red-winged blackbirds (Werner et al. 2009); type: in vivo, red-winged blackbirds (Agelaius phoeniceus); details: 80% repellency, anthraquinone only, interpolated between the 70% and 100% values
Description: The concentration response of AQ plus TiO2 feeding cue was tested. This experiment was designed to establish a concentration response relationship of AQ plus 0.2% TiO2 treated sunflower seeds for blackbirds in captivity. The experiment was also designed to establish a threshold concentration of AQ necessary for blackbird feeding repellency when reduced by varying the concentration of AQ based repellent combined with a TiO2 feeding cue. This optimized AQ concentration was expected to be less than the threshold AQ concentration previously established for red-winged blackbirds done by Werner et al. (2009) and shown in column 2 of Table 1. Daily sunflower consumption was measured throughout the pretreatment and test phases of the experiment as previously described. Greater than 80% repellency during a captive feeding trial is the operational level for an effective repellent as has been documented in the field using AQ repellents, see Werner et al. (2009) and (2011).

[2] = tested on: red-winged blackbirds; details: anthraquinone only, cited from earlier work
[3] = tested on: birds; details: '678 patent; cited from earlier work

O=C1c2ccccc2C(=O)c2ccccc21 [Anthraquinone Only, 9,10-anthraquinone]
[AQ] ppm by weight for RWBL Repellency 80% (expected AQ concentration) [1]: 1737 ((1846 − ppm by weight
[AQ] ppm by weight for RWBL Repellency 80% (expected AQ concentration) ([1]; listed as AQ): 1737 ppm by weight
[AQ] ppm by weight for RWBL Repellency 80% (expected AQ concentration) ([1]; listed as straight AQ): 1737 ppm by weight
[AQ] ppm by weight for RWBL Repellency 20% ([2]; 20% repellency): 193 (222*20/23) ppm by weight
[AQ] ppm by weight for RWBL Repellency 35% ([2]; 35% repellency): 572 (556*34/35) ppm by weight
[AQ] ppm by weight for RWBL Repellency 50% ([2]; 50% repellency): 538 (560*50/52) ppm by weight
[AQ] ppm by weight for RWBL Repellency 70% ([2]; 70% repellency): 1682 (1778*74/70) ppm by weight
[AQ] ppm by weight for RWBL Repellency 100% ([2]; 100% repellency): 1846 (1994*100/108) ppm by weight
AQ concentration to achieve 74% repellency [3]: 1778 ppm
